# Measurements taken from patent US20050118565A1, “Systems and methods for assessing neuronal degeneration” (priority 2003, published 2005).
# Key:
# [1] = system: cultured hippocampal samples; test: fEPSP recording on MED probe: neurodegeneration induced by NMDA and AMPA; assay type: cell-based, Sprague-Dawley rats; details: for synaptic responses, of the initial amplitude: then one hour of NMDA wash-out; for effect of chronic exposure on synaptic responses: chronic exposure of cultured hippocampal samples; for Hill coefficient: electrophysiology dose-response curve; for EC50: electrophysiology, various concentrations of agonist, read-out: EC50 (decrease of synaptic responses, Hill fit of plateau values of I/O curves)
# Protocol: Before use, the MED probes (Panasonic, model MED-P530AP, each electrode: […], interpolar distance: 300 μm) were soaked in 70% ethanol for 15 minutes, dried, and then sterilized with UV radiation for 15 minutes. The probe surfaces were treated overnight at room temperature with 0.1% polyethylenimine and 25 mM borate buffer, pH 8.4. The probe surface was then dried and rinsed 3 times with sterile distilled water. Finally, the probes were filled with culture medium and stored in a CO2 incubator until use (for at least one hour). The culture medium was a 2:1 mixture of Basal Medium Eagle Medium (Sigma, Catalog No. B9638) and Earle Balanced Salts Solution (Sigma, Catalog No. E7510), supplemented with the following compounds (in mM): NaCl (20), NaHCO3 (5), CaCl2 (0.2), MgSO4 (1.7), glucose (48), HEPES (26.7); 5% horse serum (GIBCO, Catalog No. 26050) and 10 ml/L penicillin-streptomycin (GIBCO, Catalog No. 10378). The pH of culture medium was then adjusted to 7.2.
# All procedures for culture preparation were carried out under a sterilized bench. Eleven day-old Sprague-Dawley rats were first sterilized with 70% ethanol, sacrificed by decapitation following anesthesia and the whole brain removed. The brains were immediately soaked in sterile ice-cold MEM (pH 7.2; GIBCO, Catalog No. 61100), supplemented with HEPES (25 mM), Tris-base (10 mM), glucose (10 mM) and MgCl2 (3 mM). Appropriate portions of the brain were then trimmed by hand and the remaining brain block placed on an ice-cold stage of a vibrating tissue slicer (Leica, model VT1000S). The thickness of the slices was set at 200 μm. The slices were gently taken off from the blade with a pipette. Each slice was trimmed, placed on the center of the MED probe, which was previously coated as mentioned above, and positioned to cover the 8×8 microelectrode array.
# After positioning the section on the MED probe, the cutting solution was removed and culture medium added to the slice up to an interface level (approximately […]). Sterile distilled water was added around the probe to increase humidity and prevent over-drying of the culture medium in the MED probe. The slices on the MED probes were then stored in a CO2 incubator at 34° C. The medium was exchanged with half volume every day.
# (§1) For baseline electrophysiological recordings in hippocampal samples, the MED probes containing the samples were removed from the incubator and placed in a smaller CO2 incubator at 34° C. and connected to the stimulation/recording component of the probe. The culture medium was replaced with sterile artificial cerebrospinal fluid (ACSF) of the following composition (in mM): NaCl (124), NaHCO3 (26), glucose (10), KCl (3), NaH2PO4 (1.25), CaCl2 (2), MgSO4 (1), and HEPES (10).
# (§2) Evoked field potentials at all 64 sites were then recorded simultaneously with the multi-channel recording system (Panasonic, MED64 system) at a 20 kHz sampling rate. One of the planar microelectrodes of the 64 available was used for cathode stimulation. Bipolar constant current pulses (10 to 45 μA, 0.1 msec) were then produced. To collect typical responses in field CA1, one of the electrodes in the Schaffer collateral fibers was selected as a stimulating electrode while another one in stratum radiatum was selected as a recording electrode. Synaptic responses were recorded at eight-step stimulation intensities (10 to 45 μA, 5 μA steps). After each recording session, ACSF was replaced with culture medium and the samples in the probes were returned to the CO2 incubator.
# fEPSPs were recorded at 20 s intervals using a paired-pulse stimulation paradigm with an inter-pulse interval of 50 msec. […] Slope and decay time of the responses were remarkably similar to those recorded in acutely prepared slices using the same system (FIG. 2C). […]
# [2] = system: cultured hippocampal samples; test: PI uptake method, dose-response of excitotoxins; assay type: cell-based; details: for Hill coefficient (PI uptake method): PI uptake dose-response curve; for EC50: PI uptake, read-out: EC50 from the PI uptake method
# Protocol: The mechanisms underlying the reduction in amplitude of synaptic responses produced by incubation with these two excitotoxins were further studied by applying various concentrations of NMDA and AMPA to tissue samples. As in the control experiments, the plateau values of the respective I/O curves were used for the analysis (FIGS. 4A and 4B). […] For comparison, dose-response curves obtained with the PI uptake method were plotted in the same figures (FIGS. 4A and 4B, open circles and dashed lines).
# [3] = system: neuronal samples chronically exposed to NMDA; test: Neuroprotectant assay: fEPSP amplitude on MED probe with 10 μM NMDA as excitotoxin; assay type: cell-based, Sprague-Dawley rats
# Protocol: An assay for identifying neuroprotectants first involves testing the stability of the recordings by comparing FEPSP amplitudes measured at the beginning of the experiments with those measured later, e.g., after at least 3, 24, 48, and 72 hours at the same stimulation intensity (FIG. 1C). For data analysis, the amplitude of the maximal (plateau) value of the I/O curve is used to determine stability of the recordings. Typically, it corresponds to responses obtained by stimulation intensities of […] (FIG. 2B).
# NMDA was selected as the excitotoxin. Based on the dose-response analysis described above (FIG. 4A), 10 μM NMDA was chosen as the concentration of agonist for use in this neuroprotectant assay. […] The neuronal samples and MED probes were prepared as described above.
# After performing control measurements, neuronal samples were incubated in culture medium containing 10 μM NMDA and 1 μM MK-801 for various periods of time. […] The relative amplitude of synaptic responses measured at stimulation intensities corresponding to the plateau of I/O curves after 3 days of incubation was 91±6% of control (n=3).
# After performing control measurements, neuronal samples were incubated in culture medium containing 10 μM NMDA and 30 μM memantine for various periods of time. […] However the degree of protection was much smaller than that provided by MK-801, as only 78±5% (n=3) of the initial amplitude was preserved under these conditions. The concentration dependency of memantine protection was studied using 10 μM NMDA and various concentrations of memantine.
# neuronal samples = test: fEPSP recording on MED probe: incubation with NMDA antagonist alone; assay type: cell-based, Sprague-Dawley rats; details: for amplitudes of responses, of control: n=3
# Protocol: as §1, §2
# However, after 1, 2, and 3 days of incubation, the amplitudes of responses were decreased to 83±6%, 79±11%, and 76±10% (n=3) of control, respectively.
smiles,measurement,setting,value
"CN[C@H](CC(=O)O)C(=O)O [NMDA, N-methyl-D-aspartate]","synaptic responses, of the initial amplitude",[1]; 10 μM NMDA for 40 min.,109±4%
same,"synaptic responses, of the initial amplitude",[1]; 10 μM NMDA for 3 hours,66±5%
same,"synaptic responses, of the initial amplitude",[1]; 10 μM NMDA for 1 day,52±2%
same,"synaptic responses, of the initial amplitude",[1]; 10 μM NMDA for 3 days,18±3%
same,"maximal amplitude of synaptic responses, of control values","[1]; 10 μM NMDA, three hours of incubation, n=3",18±4%
same,effect of chronic exposure on synaptic responses,[1],dose-dependent decreases in synaptic responses
same,Hill coefficient,[1],1.7±0.2
same,EC50,[1],5.2 ± 0.5 µM
same,"amplitude of synaptic responses, of control values","[1]; end of incubation with 10 μM NMDA for 40 min., n=3",48±12%
same,"amplitude of synaptic responses, of control values","[1]; end of incubation with 10 μM NMDA for 3 hours, n=3",22±7%
same,"amplitude of synaptic responses, of control values","[1]; end of incubation with 10 μM NMDA for 1 day, n=3",13±3%
same,"amplitude of synaptic responses, of control values","[1]; end of incubation with 10 μM NMDA for 3 days, n=3",11±3%
same,Hill coefficient (PI uptake method),[2],3.7±1.0
same,EC50,[2],21.6 ± 3.4 µM
C[C@]12N[C@H](Cc3ccccc31)c1ccccc12 [MK-801],protection of synaptic transmission against NMDA-mediated neurotoxicity,"[3]; 10 μM NMDA and 1 μM MK-801, 3 hours up to 3 days",almost completely protected
same,"relative amplitude of synaptic responses at plateau of I/O curves, of control","[3]; 10 μM NMDA and 1 μM MK-801, 3 days of incubation, n=3",91±6%
same,synaptic responses,"neuronal samples; 1 μM MK-801 alone, 3 hours of incubation",not affected
same,"amplitudes of responses, of control","neuronal samples; 1 μM MK-801 alone, 1 day of incubation",83±6%
same,"amplitudes of responses, of control","neuronal samples; 1 μM MK-801 alone, 2 days of incubation",79±11%
same,"amplitudes of responses, of control","neuronal samples; 1 μM MK-801 alone, 3 days of incubation",76±10%
"Cc1onc(O)c1CC(N)C(=O)O (stereo not drawn) [AMPA, amino-3-hydroxy-5-methyl-4-isoxazolepropionic acid]",recovery of synaptic responses after agonist removal,"[1]; 1 μM AMPA 3 days, then 24 hours of AMPA removal",no recovery was observed
same,time course of the decrease in synaptic response,"[1]; 1 μM AMPA, three hours and subsequent time points","continued to decrease at subsequent time points, stabilizing after 1 day"
same,"amplitude of synaptic responses, of control values","[1]; 40 min. incubation with 3 μM AMPA, n=3",12±5%
same,synaptic response amplitudes,"[1]; 3 days of incubation with 1 μM AMPA, n=3",46±4%
same,effect of chronic exposure on synaptic responses,[1],dose-dependent decreases in synaptic responses
same,Hill coefficient,[1],2.6±0.8
same,EC50,[1],0.81 ± 0.1 µM
same,Hill coefficient (PI uptake method),[2],2.0±0.1
same,EC50,[2],3.87 ± 0.1 µM
CC12CC3CC(C)(C1)CC(N)(C3)C2 [memantine],initial amplitude preserved,"[3]; 10 μM NMDA and 30 μM memantine, up to 3 days of incubation, n=3",78±5%
same,Hill coefficient of protection,[3]; 10 μM NMDA and various concentrations of memantine,1.1±3
same,IC50,"[3]; Rattus norvegicus, 10 μM NMDA and various concentrations of memantine, read-out: IC50 of protection (Hill equation)",6.9 ± 1.6 µM
same,synaptic transmission,"neuronal samples; memantine alone, even at 30 μM, long-term incubation",did not result in a significant decrease
